The results in this text go back to PubChem BioAssay (NCI).

What all share (test): NCI-60 cell line screen, 48 h
Assay [1] concerns RPMI-8226 leukemia.
Assay [2] relates to HOP-62 NSCLC.
For assay [3], the system named is NCI-H226 lung.
The test system of assay [4] is T-47D breast.
Assay [5] concerns MDA-MB-435.
For assay [6], the system named is HT29 colon.
Assay [7] concerns HCT-15 colon.
In assay [8] the test system is MDA-MB-231 breast.
In assay [9] the test system is NCI-H460 lung.
Assay [10] has as its system SK-MEL-5 melanoma.

Molecules are shown by their SMILES.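 Step 1: Grow cells in 96-well plates. Step 2: Expose to compound for 48 hours at 5 concentrations. Step 3: Interpolate endpoints linearly; if unreached, use highest concentration. The concentration for 50% growth inhibition is given as GI50. Definition used: TGI = concentration required for complete inhibition of growth.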

As for `Cc1[nH]c(C(=O)Nc2ccc(C(=O)N3CCNCC3)cc2OC(C)C)c(Cl)c1Cl`, the GI50 in assay [1] was 2.31 µM; in assay [2] it was 1.81 µM; in [3], 2.5 µM; in assay [4], 1.91 µM; in assay [5], 1.76 µM; in assay [6], 1.76 µM. Moreover, the GI50 in [7] was 1.82 µM; in [8], 1.67 µM; in assay [9], 1.88 µM; in [10], 1.73 µM. The TGI was 5.51 µM in [1]; 4.65 µM in assay [2]; 5.79 µM in assay [3]; 4.62 µM in assay [4]; 3.23 µM in assay [5]; 3.26 µM in assay [6]. In addition, the TGI worked out at 3.43 µM in assay [7], 3.33 µM in assay [8], 3.44 µM in assay [9] and 3.13 µM in assay [10].
Regarding `COc1ccc(C2=CC(c3cc(OC)c(OC)c(OC)c3)NC(=O)N2)cc1OC` (stereo not given), the GI50 in assay [1] was 3.03 µM; in assay [2] it was 3.99 µM; in assay [3], 8.4 µM; in [4], 2.63 µM; in [5], 3.1 µM; in [6], 4.05 µM. In addition, the GI50 in [7] was 2.9 µM; in assay [8], 2.84 µM; in assay [9], 1.92 µM; in [10], 4.41 µM. Moreover, the TGI is 19.3 µM in assay [1]; 19.8 µM in assay [2]; more than 100 µM in [3]; 28.9 µM in assay [4]; 16.9 µM in [5]; 15.1 µM in assay [6]. For the same molecule, the TGI in [7] is 17.7 µM; in assay [8] it was 8.04 µM; in assay [9] it was 5 µM; in assay [10], 16.5 µM.
For the molecule `Cc1nc2cncc(C#Cc3cncc(C(=O)Nc4ccc(CN5CCN(C)CC5)c(C(F)(F)F)c4)c3)c2nc1C`, the GI50 in [1] was 0.487 µM; in assay [2], 0.839 µM; in assay [3] it was 0.0572 µM; in [4] it was 1.24 µM; in assay [5], 0.21 µM; in assay [6], 0.205 µM. The GI50 is 0.286 µM in assay [7], 0.229 µM in assay [8], 0.354 µM in [9] and 0.839 µM in [10]. For the same molecule, the TGI in [1] came out at 4.49 µM; in assay [2], 5 µM; in [3], 4.19 µM; in [4] it was 22.7 µM; in assay [5] it was 3.03 µM; in [6], 7.56 µM. Besides, the TGI in assay [7] worked out at 5.92 µM; in [8] it was 1.03 µM; in [9], 6.34 µM; in [10] it was 2.35 µM.
For the molecule `Cn1c(=O)c(Oc2cccc(F)c2)cc2cnc(NC3CCOCC3)nc21`, the GI50 in [1], in [2], in [3], in assay [4], in assay [5] and in assay [6] was more than 25 µM each time. Further, the GI50 in assay [7], in [8], in assay [9] and in [10] was more than 25 µM each time. Further, the TGI in [1], in [2], in [3], in assay [4], in [5] and in assay [6] was more than 25 µM throughout. For the same molecule, the TGI in [7], in assay [8], in assay [9] and in [10] was more than 25 µM throughout.
For `N#Cc1c2ccccc2c2n1-c1ccccc1OC(c1ccccc1)C2=O` (stereo not given), the GI50 was 2.75 µM in assay [1]; 3.84 µM in assay [2]; 3.09 µM in [3]; 3.28 µM in assay [4]; 2.88 µM in assay [5]; 4.1 µM in [6]. The GI50 in assay [7] was 3.12 µM; in assay [8], 2.78 µM; in assay [9], 3.69 µM; in assay [10], 1.86 µM. Moreover, the TGI in assay [1] turned out to be 9.07 µM; in [2], 15.8 µM; in assay [3] it was 11.7 µM; in [4], 15.6 µM; in assay [5], 9.19 µM; in assay [6], 14 µM. Further, the TGI in [7] was 12.5 µM; in [8], 8.99 µM; in assay [9] it was 18.8 µM; in assay [10] it was 3.87 µM.
As for `COC(=O)Nc1nc2ccc(Oc3ccc(NC(=O)Nc4cccc(Br)c4)cc3)cc2[nH]1`, the GI50 was 8.24 µM in assay [1]; 1.24 µM in assay [2]; 7.59 µM in [3]; 2.17 µM in assay [4]; 0.0839 µM in assay [5]; 0.7 µM in [6]. Also, the GI50 is 2.3 µM in [7], 5.74 µM in assay [8], 1.27 µM in assay [9] and 0.948 µM in assay [10]. Also, the TGI in [1] was more than 25 µM; in [2], 8.67 µM; in assay [3] it was more than 25 µM; in assay [4] it was more than 16.7 µM; in [5] it was 0.46 µM; in [6], 3.28 µM. The TGI in assay [7] is more than 25 µM; in assay [8], more than 25 µM; in [9], more than 13.5 µM; in [10], 11.9 µM.
Turning to `C=C(C)C(=O)OC1CC2(C)OC2CC(OC(C)=O)/C(C)=C/C2OC(=O)C(=C)C21` (stereo not given), the TGI in assay [1] was 3.49 µM; in assay [2] it was 26.5 µM; in assay [3], 48 µM; in assay [4], 14.4 µM; in assay [5], 7.5 µM; in assay [6], 6.98 µM. Further, the TGI in [7] turned out to be 1.86 µM; in [8], 18.5 µM; in assay [9], 9.29 µM; in [10], 21.1 µM.
As to `Cc1ccccc1S(=O)(=O)N1[C@H](c2ccc(Cl)cc2)C(C(=O)N[C@@H](Cc2ccccc2)C(N)=O)=C[C@@H]1C(C)(C)C`, the GI50 in assay [1] is 3.07 µM; in [2], 7.75 µM; in assay [3], 7.05 µM; in [4] it was 5 µM; in assay [5], 6.83 µM; in assay [6] it was 3.49 µM. In addition, the GI50 is 2.38 µM in assay [7], 6.94 µM in assay [8], 4.7 µM in [9] and 6.8 µM in [10]. Also, the TGI is 26.7 µM in assay [1]; 15.1 µM in assay [2]; 16.1 µM in assay [3]; 20.2 µM in [4]; 13.7 µM in assay [5]; 10 µM in [6]. In addition, the TGI turned out to be 9.5 µM in assay [7], 14.3 µM in assay [8], 14.2 µM in assay [9] and 13.5 µM in assay [10].
